The term IC50 denotes the point on the concentration scale where inhibition reaches its midpoint. A word on the AC50: it is the concentration at which the activity in the assay is half-maximal.

The source made the active and inactive calls. Bounds are passed on as bounds.

The target of one assay is Large T antigen (Simian virus 40, UniProt P03070).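 Further: Confirmatory-stage PubChem screen for compounds that inhibit SV40 T antigen.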
Chain of Large T antigen (P03070 whole entry): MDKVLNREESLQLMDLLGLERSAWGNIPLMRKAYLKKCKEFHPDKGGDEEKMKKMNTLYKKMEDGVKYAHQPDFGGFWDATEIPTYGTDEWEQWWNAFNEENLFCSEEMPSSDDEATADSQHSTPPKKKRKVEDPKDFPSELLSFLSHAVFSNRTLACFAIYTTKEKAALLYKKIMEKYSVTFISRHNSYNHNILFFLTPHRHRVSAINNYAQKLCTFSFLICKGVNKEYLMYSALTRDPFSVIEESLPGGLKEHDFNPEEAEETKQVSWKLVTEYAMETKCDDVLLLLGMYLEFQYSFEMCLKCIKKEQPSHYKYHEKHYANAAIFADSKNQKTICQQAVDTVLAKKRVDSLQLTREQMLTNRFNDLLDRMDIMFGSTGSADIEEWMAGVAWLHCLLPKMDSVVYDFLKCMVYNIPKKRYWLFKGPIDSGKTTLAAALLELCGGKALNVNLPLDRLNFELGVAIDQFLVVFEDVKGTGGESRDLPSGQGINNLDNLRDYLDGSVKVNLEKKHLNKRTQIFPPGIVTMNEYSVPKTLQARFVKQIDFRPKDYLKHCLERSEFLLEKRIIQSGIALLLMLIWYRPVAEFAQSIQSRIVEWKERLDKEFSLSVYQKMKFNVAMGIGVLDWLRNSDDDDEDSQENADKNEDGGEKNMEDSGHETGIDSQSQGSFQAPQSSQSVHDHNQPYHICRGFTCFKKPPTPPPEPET
Assay: not given
Format: functional, Betapolyomavirus macacae.
Turning to `N#Cc1c(-c2ccco2)cc(-c2ccccc2)[nH]c1=O`, the IC50 is 68.7 µM (active).

Consider `COc1cc(/C=N/NC(=O)CCc2c(C)n[nH]c2C)ccc1O`, for which the IC50 is 12.9 µM (active).

For the next assay, the target named is FAD-linked sulfhydryl oxidase ALR (Homo sapiens, UniProt P55789). The assay is described as follows: inhibitors of human ALR sulfhydryl oxidase, dose response, biochemical, H2O2 detection, luminescence, cherry-pick (AID 493248).
Chain of FAD-linked sulfhydryl oxidase ALR (P55789 whole entry): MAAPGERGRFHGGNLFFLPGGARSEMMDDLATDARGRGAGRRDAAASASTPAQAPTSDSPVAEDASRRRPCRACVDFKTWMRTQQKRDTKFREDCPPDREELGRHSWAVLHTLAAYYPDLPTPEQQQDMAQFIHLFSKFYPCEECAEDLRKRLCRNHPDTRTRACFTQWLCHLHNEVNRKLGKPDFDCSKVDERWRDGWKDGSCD
For the molecule `O=[N+]([O-])c1ccc(CSC2=NCCS2)cc1`, the concentration at half-maximal activity (AC50) was 5.31 µM (active).

For the molecule `O=C(OCc1ccccc1)Oc1cncc(C(=O)O)c1`, the AC50 was 0.072 µM (active).

In the case of `CC(=O)c1ccc(S(=O)(=O)N2CCNC(=O)C2)cc1`, the half-maximal activity concentration (AC50) is 3.33 µM (active).

Consider `COC(=O)c1ccc(NC(=O)c2cccc(Cl)c2)o1`, for which the AC50 is 20.9 µM (active).

As for `Cc1ccc(S(=O)(=O)N/N=C/c2ccc(O)c(O)c2)cc1[N+](=O)[O-]`, the AC50 is 1.06 µM (active).

As to `CCN(CC)c1ccc(/C=N/NC(=O)CNC(=O)c2ccccn2)cc1`, the AC50 was 0.91 µM (active).

`O=C(O)c1cccc(N/N=C/c2cc(Br)cc(Br)c2O)c1`: the AC50 is 1.99 µM (active).

The target of a further assay is T1, Protein skinhead-1 (Caenorhabditis elegans, UniProt P34707).
T1 sequence (P34707 whole entry): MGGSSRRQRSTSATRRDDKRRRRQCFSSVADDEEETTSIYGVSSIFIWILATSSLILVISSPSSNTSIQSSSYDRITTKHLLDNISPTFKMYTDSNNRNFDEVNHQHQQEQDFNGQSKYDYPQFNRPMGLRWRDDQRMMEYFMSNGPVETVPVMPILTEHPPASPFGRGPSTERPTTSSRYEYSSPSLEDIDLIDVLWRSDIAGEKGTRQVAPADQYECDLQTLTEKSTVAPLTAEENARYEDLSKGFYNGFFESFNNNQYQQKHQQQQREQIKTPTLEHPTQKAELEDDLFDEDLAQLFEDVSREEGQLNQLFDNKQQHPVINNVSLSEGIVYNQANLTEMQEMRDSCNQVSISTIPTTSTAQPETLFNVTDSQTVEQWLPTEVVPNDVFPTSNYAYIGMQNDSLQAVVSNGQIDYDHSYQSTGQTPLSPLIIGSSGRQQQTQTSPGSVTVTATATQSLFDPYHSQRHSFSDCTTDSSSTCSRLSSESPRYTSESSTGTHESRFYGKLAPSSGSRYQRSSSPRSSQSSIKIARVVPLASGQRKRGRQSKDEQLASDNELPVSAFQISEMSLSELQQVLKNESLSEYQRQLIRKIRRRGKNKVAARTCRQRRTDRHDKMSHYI
Assay: not given
It counts as functional.
As for `Cc1ccc(SCCNC(=O)CN2C(=O)c3ccccc3S2(=O)=O)cc1`, the IC50 was > 100 µM (inactive).

For the molecule `COc1ccc(OCCN(C)C(=O)c2cccc(S(=O)(=O)N(C)c3ccccc3)c2)cc1`, the IC50 is > 100 µM (inactive).

With `Fc1ccc(OCc2nc3ccccc3s2)cc1`, the IC50 is > 100 µM (inactive).

Consider `Fc1ccc(CSc2nnc(-c3ccco3)o2)cc1`, for which the IC50 is 30.1 µM (active).

On to `CN(C)S(=O)(=O)NC(c1ccccc1)c1ccccc1`, for which the IC50 was > 100 µM (inactive).

Regarding `O=C(CSc1nnc(CNc2ccc(F)cc2)n1Cc1ccco1)NC1CC1`, the IC50 is > 100 µM (inactive).

On to `COC(=O)c1cc(-c2cccc(OC)c2)[nH]n1`, for which the IC50 was > 100 µM (inactive).

With `Cn1c(/C(C#N)=C(\O)c2ccc([N+](=O)[O-])s2)nc2ccccc21`, the IC50 was > 100 µM (inactive).

A further assay concerns the target T2, Rac GTPase-activating protein 1 (Homo sapiens, UniProt Q9H0H5).
T2 sequence (Q9H0H5 whole entry): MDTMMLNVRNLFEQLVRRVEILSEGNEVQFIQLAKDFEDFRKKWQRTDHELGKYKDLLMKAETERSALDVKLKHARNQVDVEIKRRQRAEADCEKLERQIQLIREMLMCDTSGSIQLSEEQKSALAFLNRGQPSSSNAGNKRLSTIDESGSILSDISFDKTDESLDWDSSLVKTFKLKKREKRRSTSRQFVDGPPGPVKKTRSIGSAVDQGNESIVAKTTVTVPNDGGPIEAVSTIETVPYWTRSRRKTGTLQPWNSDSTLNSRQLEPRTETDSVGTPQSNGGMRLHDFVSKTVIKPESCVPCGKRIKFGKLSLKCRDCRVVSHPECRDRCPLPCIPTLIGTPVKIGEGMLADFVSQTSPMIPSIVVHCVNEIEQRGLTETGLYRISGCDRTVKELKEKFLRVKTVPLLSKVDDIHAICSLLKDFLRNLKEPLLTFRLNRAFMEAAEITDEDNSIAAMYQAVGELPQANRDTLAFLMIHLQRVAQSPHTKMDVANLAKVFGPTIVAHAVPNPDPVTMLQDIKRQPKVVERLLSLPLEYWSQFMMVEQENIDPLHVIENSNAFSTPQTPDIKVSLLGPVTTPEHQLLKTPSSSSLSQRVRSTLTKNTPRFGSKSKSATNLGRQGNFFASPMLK
As to the kind of experiment: MgcRacGAP GTPase-activating activity inhibitors, confirmation, biochemical, ADP Hunter fluorescence, primary and confirmatory (AID 624330). Format: functional.
Consider `CCOC(=O)CCNC(C)C1COc2ccccc2O1` (configuration not stated), for which the IC50 is 178 µM (active).

On to `COc1cccc2cc(C(=O)Oc3ccc(NC(C)=O)cc3)c(=O)oc12`, for which the IC50 is 34.9 µM (active).

Take `Oc1ccccc1/C=N/n1c(S)nnc1-c1ccccc1`: the IC50 is 82.2 µM (active).

Test system in another assay: not listed separately
The assay is described as follows: inhibitors of HIV Env-driven cell fusion, dose response, cherry-pick (AID 652057). Format: functional, cell-based.
Consider `O=C(Nc1ccc(Cl)cc1)C1CCCN(C2=NS(=O)(=O)c3ccccc32)C1` (configuration not stated), for which the AC50 is 25.9 µM (active).

Consider `Cc1ccc(-c2ccc3c(c2)O[C@@H](CN(C)Cc2cccnc2)[C@H](C)CN([C@H](C)CO)S3(=O)=O)cc1`, for which the AC50 is 33.3 µM (active).

Test system in a further assay: not listed separately
As to the kind of experiment: P. falciparum Dd2 growth inhibitors, dose response, SYBR Green, cherry-picked samples (AID 1159567). It counts as functional, cell-based.
Consider `CC(C)(C)[S@@+]([O-])N1Cc2cc(C(=O)N3CCc4ccccc4C3)nc(-c3cccc(-c4ccncc4)c3)c2[C@H]1CCO`, for which the AC50 is 5.87 µM (active).

Take `COc1ccc2c3c(n(C)c2c1)[C@H](CO)N(Cc1ccccc1OC)CC31CN(CC2CCOCC2)C1`: the AC50 is 4.81 µM (active).

Turning to `COc1ccc2c3c(n(C)c2c1)[C@@H](CO)N(C(=O)Nc1ccccc1F)CC31CCN(C)CC1`, the AC50 was 5.95 µM (active).

For the molecule `COc1ccc2c3c([nH]c2c1)[C@@H](CO)N(Cc1cc(F)ccc1F)CC31CN(C(=O)C2CCC2)C1`, the AC50 was 6.17 µM (active).

As for `CC(C)c1cn([C@H]2C[C@@H]3O[C@H](CO)CC[C@@H]3O[C@@H]2CCc2ccc(C#CC3(O)CCCC3)cc2)nn1`, the AC50 was 6.12 µM (active).

These data come from ChEMBL document CHEMBL1201862, “PubChem BioAssay data set” (2004).
